According to ChEMBL document CHEMBL4627407, “Identification of a Potent Oridonin Analogue for Treatment of Triple-Negative Breast Cancer” (J Med Chem, 2020):
The source made the active and inactive calls. The calls are words filed in the database; no cut-off is given here.

Assays:
HCC1806 [1] = assay: Suppression of FAK expression in human HCC1806 cells at 50 to 200 nM after 48 hrs by Western blot assay; assay type: functional, cell-based
HCC1806 [2] = assay: Antitumor activity against human HCC1806 cells xenografted in iv dosed ICR mouse assessed as reduction in tumor volume administered once per day for 23 consecutive days and measured every 2 days; assay type: functional, organism-based
HCC1806 [3] = assay: Induction of cell cycle arrest in human HCC1806 cells assessed as accumulation at G1 phase at 100 nM after 48 hrs by propidium iodide staining based FACScan flow cytometry (reference value: 70.74%); assay type: functional
HCC1806 [4] = assay: Induction of apoptosis in human HCC1806 cells assessed as viable cells at 100 uM after 48 hrs by Annexin V-FITC/propidium iodide double staining based flow cytometry (reference value: 95.7%); assay type: functional; conditions: HCC1806, 48 h, read-out: Activity
HCC1806 [5] = assay: Induction of apoptosis in human HCC1806 cells assessed as necrotic cells at 100 uM after 48 hrs by Annexin V-FITC/propidium iodide double staining based flow cytometry (reference value: 1.32%); assay type: functional
HCC1806 [6] = assay: Antitumor activity against human HCC1806 cells in ICR mouse assessed as reduction in tumor weight at 12.5 mg/kg, iv administered once per day for 23 consecutive days and measured every 2 days relative to control; assay type: functional; set-up: scale not given: the % may be the effect or the level left
HCC1806 [7] = assay: Induction of apoptosis in human HCC1806 cells assessed as viable cells at 200 uM after 48 hrs by Annexin V-FITC/propidium iodide double staining based flow cytometry (reference value: 95.7%); assay type: functional; conditions: HCC1806, 48 h, read-out: Activity
HCC1806 [8] = assay: Induction of cell cycle arrest in human HCC1806 cells assessed as downregulation of cdc2 expression by western blot analysis; assay type: functional, cell-based
MDA-MB-231 = assay: Antiproliferative activity against human MDA-MB-231 cells after 72 hrs by MTT assay; assay type: functional, cell-based; conditions: MDA-MB-231, 72 h
[9] = Inhibition of PI3K/Akt/mTOR signalling pathway in human HCC1806 cells assessed as reduction in phosphorylated PI3K expression at Y458 residue after 48 hrs by Western blot analysis; assay type: cell-based
HCC1806 [10] = assay: Induction of cell cycle arrest in human HCC1806 cells assessed as increase in accumulation at G2/M phase after 48 hrs by propidium iodide staining based FACScan flow cytometry; assay type: functional
HCC1806 [11] = assay: Antitumor activity against human HCC1806 cells in ICR mouse assessed as increase in apoptosis in tumor at 12.5 to 25 mg/kg, iv administered once per day for 23 consecutive days by TUNEL based immunohistochemical analysis; assay type: functional, organism-based
[12] = Toxicity in ICR mouse assessed as induction of morphological changes in heart at 25 mg/kg, iv administered once per day for 23 consecutive days; assay type: organism-based; conditions: in vivo
HCC1806 [13] = assay: Inhibition of cell adhesion in human HCC1806 cells incubated for 48 hrs by phase contrast microscopy; assay type: functional, cell-based
HCC1806 [14] = assay: Antitumor activity against human HCC1806 cells in ICR mouse assessed as increase in apoptosis in tumor at 12.5 to 25 mg/kg, iv administered once per day for 23 consecutive days by hematoxylin and eosin staining based histopathological assay; assay type: functional, organism-based
HCC1806 [15] = assay: Induction of apoptosis in human HCC1806 cells assessed as late apoptotic cells at 50 uM after 48 hrs by Annexin V-FITC/propidium iodide double staining based flow cytometry (reference value: 0.81%); assay type: functional
HCC1806 [16] = assay: Induction of apoptosis in human HCC1806 cells assessed as early apoptotic cells at 100 uM after 48 hrs by Annexin V-FITC/propidium iodide double staining based flow cytometry (reference value: 2.16%); assay type: functional
HCC1806 [17] = assay: Antimigratory activity against human HCC1806 cells assessed as reduction in MMP9 expression at 50 to 200 nM after 48 hrs by Western blot analysis; assay type: functional, cell-based
[18] = Toxicity in ICR mouse assessed as reduction in body weight at 12.5 to 25 mg/kg, iv administered once per day for 23 consecutive days and measured every 2 days; assay type: organism-based; conditions: in vivo, 48 h
[19] = Toxicity in ICR mouse assessed as induction of morphological changes in liver at 25 mg/kg, iv administered once per day for 23 consecutive days; assay type: organism-based; conditions: in vivo
DU-4475 = assay: Antiproliferative activity against human DU4475 cells after 72 hrs by MTT assay; assay type: functional, cell-based; conditions: DU-4475, 72 h
T47D = assay: Antiproliferative activity against human T47D cells after 72 hrs by MTT assay; assay type: functional, cell-based
[20] = Toxicity in ICR mouse assessed as induction of morphological changes in lung at 25 mg/kg, iv administered once per day for 23 consecutive days; assay type: organism-based; conditions: in vivo
[21] = Inhibition of PI3K/Akt/mTOR signalling pathway in human HCC1806 cells assessed as reduction in phosphorylated mTOR expression at S2448 residue after 48 hrs by Western blot analysis; assay type: cell-based
HCC1806 [22] = assay: Induction of intracellular reactive oxygen species generation in human HCC1806 cells incubated for 48 hrs by DCFH2-DA staining based flow cytometeric analysis; assay type: functional, cell-based
HCC1806 [23] = assay: Antitumor activity against human HCC1806 cells in ICR mouse assessed as increase in apoptosis in tumor at 12.5 to 25 mg/kg, iv administered once per day for 23 consecutive days by Ki67 staining-based immunohistochemical analysis; assay type: functional, organism-based
HCC1806 [24] = assay: Antimigratory activity in human HCC1806 cells assessed as reduction in EGFR expression at 50 to 200 nM after 48 hrs by Western blot analysis; assay type: functional, cell-based
HCC1806 [25] = assay: Induction of cell cycle arrest in human HCC1806 cells assessed as accumulation at S phase at 200 nM after 48 hrs by propidium iodide staining based FACScan flow cytometry (reference value: 18.89%); assay type: functional
MDA-MB-453 = assay: Antiproliferative activity against human MDA-MB-453 cells after 72 hrs by MTT assay; assay type: functional, cell-based; conditions: MDA-MB-453, 72 h
HCC1806 [26] = assay: Induction of apoptosis in human HCC1806 cells assessed as decrease in Bcl2 expression at >= 50 nM after 48 hrs by Western blot analysis; assay type: functional, cell-based
HCC1806 [27] = assay: Antitumor activity against human HCC1806 cells harboring luciferase gene xenografted in ICR mouse assessed as shrunken tumor tissue at 12.5 to 25 mg/kg, iv administered once daily for 21 consecutive days and measured once every week; assay type: functional, organism-based
HCC1806 [28] = assay: Induction of apoptosis in human HCC1806 cells after 48 hrs by Annexin V-FITC/propidium iodide double staining based flow cytometry; assay type: functional, cell-based
MDA-MB-468 = assay: Antiproliferative activity against human MDA-MB-468 cells after 72 hrs by MTT assay; assay type: functional, cell-based; conditions: MDA-MB-468, 72 h
HCC1806 [29] = assay: Antitumor activity against human HCC1806 cells in ICR mouse assessed as tumor shrinkage at 12.5 to 25 mg/kg, iv administered once per day for 23 consecutive days by hematoxylin and eosin staining based histopathological assay; assay type: functional, organism-based
HCC1806 [30] = assay: Antimigratory activity against human HCC1806 cells assessed as reduction in MMP2 expression at 50 to 200 nM after 48 hrs by Western blot analysis; assay type: functional, cell-based
HCC1806 [31] = assay: Antimigratory activity in human HCC1806 cells assessed as reduction in integrin beta1 level after 48 hrs by Western blot analysis; assay type: functional, cell-based
[32] = Toxicity in ICR mouse assessed as induction of morphological changes in kidney at 25 mg/kg, iv administered once per day for 23 consecutive days; assay type: organism-based; conditions: in vivo

With C=C1C(=O)[C@@]23C(=O)[C@@H]4OC[C@]5(C=CCC(C)(C)[C@@H]45)[C@@H]2CC[C@@H]1[C@H]3OC(=O)/C=C/c1ccncc1 the inhibition (HCC1806 [1]) was “inactive”, the Activity (HCC1806 [2]) was “Dose-dependent effect” and the Activity (HCC1806 [3]) was 60.61%. For the same molecule, the viability at 100 µM (HCC1806 [4]) was 69%, the Activity (HCC1806 [5]) was 0.66% and the Activity (HCC1806 [6]) was 67.3%. For the same molecule, the viability at 200 µM (HCC1806 [7]) was 50.4%, the Activity (HCC1806 [8]) was “Dose-dependent effect” and the IC50 (MDA-MB-231) was 630 nM. For the same molecule, the inhibition [9] was “Dose-dependent effect”, the Activity (HCC1806 [10]) was “Dose-dependent effect” and the Activity (HCC1806 [11]) was “Active”. For the same molecule, the Activity [12] was “Non-Toxic”, the inhibition (HCC1806 [13]) was “Dose-dependent effect” and the Activity (HCC1806 [14]) was “Active”. The Activity (HCC1806 [15]) was 2.43%, the Activity (HCC1806 [16]) was 26.78% and the Activity (HCC1806 [17]) was “Active”. The Activity [18] was “Non-Toxic”, the Activity [19] was “Non-Toxic” and the IC50 (DU-4475) was 210 nM. For the same molecule, the IC50 (T47D) was 560 nM, the Activity [20] was “Non-Toxic” and the inhibition [21] was “Dose-dependent effect”. The Activity (HCC1806 [22]) was “Dose-dependent effect”, the Activity (HCC1806 [23]) was “Active” and the Activity (HCC1806 [24]) was “Active”. For the same molecule, the Activity (HCC1806 [25]) was 20.74%, the IC50 (MDA-MB-453) was 330 nM and the Activity (HCC1806 [26]) was “Active”. For the same molecule, the Activity (HCC1806 [27]) was “Active”, the Activity (HCC1806 [28]) was “Dose-dependent effect” and the IC50 (MDA-MB-468) was 450 nM. The Activity (HCC1806 [29]) was “Active”, the Activity (HCC1806 [30]) was “Active” and the Activity (HCC1806 [31]) was “Dose-dependent effect”. For the same molecule, the Activity [32] was “Non-Toxic”.
